From patent publication US20120322060A1, “DIAGNOSIS AND MONITORING TREATMENT OF PSYCHIATRIC DISEASES WITH SPADIN AND RELATED METHODS” (CENTRE NATIONAL DE LE RECHERCHE SCIENTIFIQUE - CNRS -, priority 2011, published 2012)
No end group written: not given here.

Tests used:
[1] = system: C13NJ microglial cell line; assay: C13NJ wound-healing assay (NT-induced cell migration); type: cell-based; conditions: 10 nM NT in the presence of 1 μM spadin
Experimental: A cell-free zone was created within a semi-confluent monolayer with a pipette tip. We analyzed by time-lapse microscopy how cells repopulated the cell-free zone. The 100% of migrating cells was calculated by stimulation of cell migration with 10% of Fetal Calf Serum (FCS).
A cell-free zone was created within a semi-confluent monolayer of microglial culture by scratching cells off with a pipette tip.

DRN 5-HT neurons [2] = assay: Extracellular unitary recordings of DRN 5-HT neurons in mice; type: in vivo, mouse; conditions: 10^-5 M in 100 μl bolus i.p.
Experimental: As previously described, single-barreled glass micropipettes (recording electrodes) were filled with a 2 M NaCl solution saturated with Fast Green FCF, resulting in an impedance of 2-5 MΩ. Mice were anaesthetized with chloral hydrate (400 mg/kg, i.p., using a 2% solution), and placed in a stereotaxic frame equipped with the Stoelting “just for mouse” adaptor. Electrodes were positioned 0.5-1 mm posterior to the interaural line on the midline, and were then lowered into the DRN, usually attained at a depth of 2.5 mm from the brain surface. 5-HT neurons were then encountered over a maximal distance of 1 mm. They were identified using the following criteria: a slow (0.5-2.5 Hz) and regular firing rate and long-duration (0.8-1.2 ms) action potentials, with a positive-negative spike. Spikes were computed by using the Spike 2 software, so that the firing rate was calculated as the mean number of events occurring within a 10 s period. For each neuron, the discharge was monitored during 60 seconds. Each mouse received either spadin (10^−5 M in a 100 μl bolus) or its vehicle (saline). Starting 30 min after the injection, 3 to 4 successive descents were performed along the DRN, for a total of 4-8 cells recorded per animal. Recordings were performed for a maximal duration of 4 hours post-injection.

DRN 5-HT neurons [3] = assay: Rat extracellular unitary recordings of DRN 5-HT neurons; type: in vivo; conditions: rats, 10^-5 M in 500 μl bolus i.p.
Experimental: Single-barreled glass micropipettes (recording electrodes) were filled with a 2 M NaCl solution saturated with Fast Green FCF, resulting in an impedance of 2-5 MΩ. Rats were anaesthetized with chloral hydrate (400 mg/kg, i.p., using a 8% solution), and placed in a stereotaxic frame. A burr hole was drilled on the midline 1 mm anterior to lambda. DRN 5-HT neurons were encountered over a distance of 1 mm starting immediately below the ventral border of the Sylvius aqueduct. They were identified using the following criteria: a slow (0.5-2.5 Hz) and regular firing rate and long-duration (0.8-1.2 ms) action potentials, with a positive-negative spike. Spikes were computed by using the Spike 2 software, so that the firing rate was calculated as the mean number of events occurring within a 10 s period. For each neuron, the discharge was monitored during 60 seconds. Each rat received either spadin (10^−5M in a 500 μl bolus) or its vehicle. Starting 30 min after the injection, 2 to 3 successive descents were performed along the DRN, for a total of 8-12 cells recorded per animal. Recordings were performed for a maximal duration of 4 hours post-injection.

mice [4] = assay: Learned Helplessness (LH) test; type: in vivo, mouse; conditions: acute i.v., 10^-6 M, shocked mice
Experimental: LH training was carried out in 2-way shuttle plexiglas boxes (Imetronic). Each box was divided in 2 equal compartments (19.5×10×13 cm) separated by a wall equipped with, a gate (4.7×4.7 cm) that was closed during LH training but opened automatically during shuttle escape testing. LH was induced in shocked group by administering 360 inescapable, 2-s duration footshocks (0.3 mA intensity), administered once every 10 s over a 1-hour session. Scrambled shocks were delivered by a source shock to a grid floor, which was made of stainless steel bars 2 mm in diameter, spaced 4 mm apart. […] 24 hours later, escape testing was performed in the same box, but the animals had the possibility to avoid shocks by moving through the gate to the other side of the box. During testing sessions, all mice were given 30 shuttle escape trials with 30 s intervals between the start of each trial. While on the first five trials, the gate opened at the same time as the shock (0.3 mA), for the 25 remaining trials, the gate opened 2 s after shock onset. Each trial (with a maximal 24 s) duration was terminated when the mouse went into the adjacent compartment. Escape latencies were averaged over 5 trials. Overall escape latencies were computed by averaging escape latencies over 30 trials.

mice [5] = assay: Corticosterone assay after tube restraint stress; type: in vivo, mouse; conditions: 30 min after 10 min tube restraint; spadin i.p. 10^-5 M
Experimental: Mice were individually housed for at least 12 hours before blood sample collection. Serum samples, collected in the morning were obtained by retroorbital puncture before and 30 min after the end of a 10-min tube restraint. Levels of corticosterone were measured by radioimmunoassay using a commercially available kit (MP Biomedicals).

mice [6] = assay: Light/dark exploration; type: in vivo, mouse; conditions: spadin i.p. 10^-5 M, diazepam i.p. 0.5 mg/kg
Experimental: The apparatus consisted of a cage (25×40×20 cm) divided into two compartments by a black partition containing a small opening that allows mouse to move from one compartment to the other. One compartment, comprising […] of the surface area, was made of white plastic and was brightly illuminated. The adjoining smaller compartment was black and dark. Mice were placed in the white compartment and allowed to move freely between the two chambers for 5 minutes. The number of transitions between the two compartments, time spent in the white chamber, and latency to the first transition were recorded. Mice tend to avoid the white compartment. Thus the measures of exploration in this area (time and entrances) were used as experimental indices of anxiety.

CREB = assay: Total CREB and pCREB Western blotting of hippocampus; type: in vivo, mouse; conditions: 4-day treatment, i.p. 10^-5 M, hippocampus extracts
Experimental: Mouse brains were dissected on ice. Isolated hippocampi (1-2 mg wet tissue/100 μl) were homogenized in a solubilization buffer containing 20 mM HEPES (pH:7.9), 0.4 M NaCl, 20% (v/v) glycerol, 1% (v/v) Nonidet P-40, 5 mM MgCl2, 0.5 mM EDTA, 0.1 mM EGTA and protease inhibitor cocktail using a dounce homogenizer. The homogenates were centrifuged 30 min at 15,000×g at 4° C. Supernatants were stored at −70° C. until further use. Protein concentrations were measured using conventional Bradford's method. Samples ([…] proteins from each experimental group) were resuspended in SDS buffer, sonicated, boiled for 5 min before loading on 10% SDS PAGE gels and electrophoresed for 2 hours at 60 mA. Proteins were then transferred from gels onto Hybond-PVDF membranes (Amersham Biosciences) in blotting buffer (156 mM Tris, 1 M glycine, PBS) for 90 min at 80 mA and blocked with 5% skim milk (Regilait) in PBS for 2 hours at room temperature. […] Total CREB or tubulin contents were determined after stripping by using 1/1000 dilution of anti-CREB antibody (Cell Signaling Technology) and 1/1000 dilution of anti-tubulin antibody (Sigma-Aldrich). […] Relative intensities of the labeled bands were analyzed by densitometric scanning using Image) imaging system. CREB activation was expressed as the ratio between pCREB and total CREB present in each sample.

Sequence: APLPRWSGPIGVSWGLR [spadin]
- migrating cells, % of number migrating with 10% FCS [1]: 6.2±1.3%
- increase of DRN 5-HT neuron firing rate versus vehicle (DRN 5-HT neurons [2]): 146%
- mean firing rate of DRN 5-HT neurons (DRN 5-HT neurons [2]): 3.1±0.7 Hz
- DRN 5-HT neuron firing rate (DRN 5-HT neurons [3]): 2.66±0.36 Hz
- increase of DRN 5-HT neuron firing rate versus saline (DRN 5-HT neurons [3]): 125%
- reduced escape latencies after training versus saline (mice [4]): 25.4%
- reduction of stress-induced increase in corticosterone levels versus saline (mice [5]): 79.5%
- number of light/dark transitions (mice [6]): did not make more transitions
- stimulation of pCREB (quantification of blots) (CREB): 4 fold
